For eight compounds, surface tension liquid-gas results are on record in the NIST ThermoML archive (doi:10.1021/je800069z).

The conditions of this data set: Ring tensiometer.

Molecules are shown by their SMILES. Numbers after ± are expanded uncertainties.

For `CCCCCC[n+]1ccn(C)c1.O=S(=O)([N-]S(=O)(=O)C(F)(F)F)C(F)(F)F`, the surface tension liquid-gas (commonly the work needed to enlarge the surface of a liquid by unit area) by setting is: (293.15 K) 32.31 ± 0.61 mN/m; (303.15 K) 31.76 ± 0.6 mN/m; (313.15 K) 31.2 ± 0.59 mN/m; (323.15 K) 30.6 ± 0.58 mN/m; (333.15 K) 30.16 ± 0.57 mN/m; (343.15 K) 29.62 ± 0.56 mN/m.

As for `CCCCCCCCCCn1cc[n+](C)c1.O=S(=O)([N-]S(=O)(=O)C(F)(F)F)C(F)(F)F`, the surface tension liquid-gas was found to be 32.12 ± 0.6 mN/m (293.15 K); 31.34 ± 0.59 mN/m (303.15 K); 30.7 ± 0.58 mN/m (313.15 K); 30.1 ± 0.57 mN/m (323.15 K); 29.5 ± 0.56 mN/m (333.15 K); 28.68 ± 0.55 mN/m (343.15 K).

For the compound `CCCCCn1cc[n+](C)c1.O=S(=O)([N-]S(=O)(=O)C(F)(F)F)C(F)(F)F`, the surface tension liquid-gas is, setting by setting: (293.15 K) 32.9 ± 0.62 mN/m; (303.15 K) 32.41 ± 0.61 mN/m; (313.15 K) 31.83 ± 0.6 mN/m; (323.15 K) 31.27 ± 0.59 mN/m; (333.15 K) 30.77 ± 0.58 mN/m; (343.15 K) 30.31 ± 0.58 mN/m.

Consider `CCCCCCCn1cc[n+](C)c1.O=S(=O)([N-]S(=O)(=O)C(F)(F)F)C(F)(F)F`, for which the surface tension liquid-gas was 32 ± 0.6 mN/m (293.15 K); 31.36 ± 0.59 mN/m (303.15 K); 30.66 ± 0.58 mN/m (313.15 K); 30.02 ± 0.57 mN/m (323.15 K); 29.5 ± 0.56 mN/m (333.15 K); 28.95 ± 0.55 mN/m (343.15 K). Further, the surface tension liquid-gas (353.15 K) is recorded as 28.29 ± 0.54 mN/m.

Take `CCn1cc[n+](C)c1.O=S(=O)([N-]S(=O)(=O)C(F)(F)F)C(F)(F)F`: the surface tension liquid-gas (293.15 K) worked out at 36.94 ± 0.68 mN/m; the surface tension liquid-gas (303.15 K) came out at 36.43 ± 0.67 mN/m; the surface tension liquid-gas (313.15 K) worked out at 35.92 ± 0.66 mN/m; the surface tension liquid-gas (323.15 K) turned out to be 35.51 ± 0.66 mN/m; the surface tension liquid-gas (333.15 K) is listed as 34.96 ± 0.65 mN/m; the surface tension liquid-gas (343.15 K) is recorded as 34.57 ± 0.64 mN/m.

For the compound `CCCC[n+]1ccn(C)c1.O=S(=O)([N-]S(=O)(=O)C(F)(F)F)C(F)(F)F`, the surface tension liquid-gas reads like this: (293.15 K) 33.6 ± 0.63 mN/m; (303.15 K) 33.09 ± 0.62 mN/m; (313.15 K) 32.5 ± 0.61 mN/m; (323.15 K) 31.92 ± 0.6 mN/m; (333.15 K) 31.35 ± 0.59 mN/m; (343.15 K) 30.9 ± 0.58 mN/m.

Turning to `CCCn1cc[n+](C)c1.O=S(=O)([N-]S(=O)(=O)C(F)(F)F)C(F)(F)F`, the surface tension liquid-gas (293.15 K) is 34.87 ± 0.65 mN/m; the surface tension liquid-gas (303.15 K) is on record as 34.22 ± 0.64 mN/m; the surface tension liquid-gas (313.15 K) came to 33.73 ± 0.63 mN/m; the surface tension liquid-gas (323.15 K) is given as 33.31 ± 0.62 mN/m; the surface tension liquid-gas (333.15 K) came to 32.79 ± 0.61 mN/m; the surface tension liquid-gas (343.15 K) was determined as 32.18 ± 0.6 mN/m.

Regarding `CCCCCCCCn1cc[n+](C)c1.O=S(=O)([N-]S(=O)(=O)C(F)(F)F)C(F)(F)F`, the surface tension liquid-gas runs as follows: (293.15 K) 31.93 ± 0.6 mN/m; (303.15 K) 31.3 ± 0.59 mN/m; (313.15 K) 30.57 ± 0.58 mN/m; (323.15 K) 29.98 ± 0.57 mN/m; (333.15 K) 29.4 ± 0.56 mN/m; (343.15 K) 28.86 ± 0.55 mN/m.
